How the values were obtained:
waterhemp = test: Test C postemergence; format: in vivo, Amaranthus rudis
In short: (§1)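 Seeds sown in loam–sand blend and treated preemergence with test chemicals in non-phytotoxic solvent with surfactant; postemergence plants in peat-based medium, treated at 2–18 cm (1- to 4-leaf stage). Greenhouse 13 to 15 days, then visual rating versus controls, 0 (no effect) to 100 (complete control).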

kochia = test: Test C postemergence; format: in vivo, Kochia scoparia
In short: as §1

lambsquarters [1] = test: Test C postemergence; format: in vivo, Chenopodium album
In short: as §1

pigweed = test: Test C postemergence; format: in vivo, Amaranthus retroflexus
In short: as §1

blackgrass = test: Test C postemergence; format: in vivo, Alopecurus myosuroides
In short: as §1

wheat = test: Test C postemergence; format: in vivo, Triticum aestivum
In short: as §1

foxtail, giant = test: Test C postemergence; format: in vivo, Setaria faberii
In short: as §1

lambsquarters [2] = test: Test C preemergence; format: in vivo, Chenopodium album
In short: as §1

soybean = test: Test C postemergence; format: in vivo, Glycine max
In short: as §1

velvetleaf = test: Test C postemergence; format: in vivo, Abutilon theophrasti
In short: as §1

nutsedge, yellow = test: Test C postemergence; format: in vivo, Cyperus esculentus
In short: as §1

morningglory = test: Test C postemergence; format: in vivo, Ipomoea coccinea
In short: as §1

oilseed rape = test: Test C postemergence; format: in vivo, Brassica napus
In short: as §1

corn = test: Test C postemergence; format: in vivo, Zea mays
In short: as §1

johnsongrass = test: Test C postemergence; format: in vivo, Sorghum halepense
In short: as §1

chickweed = test: Test C postemergence; format: in vivo, Stellaria media
In short: as §1

ryegrass, Italian = test: Test C postemergence; format: in vivo, Lolium multiflorum
In short: as §1

galium = test: Test C postemergence; format: in vivo, Galium aparine
In short: as §1

[3] = Postemergence, 31 g ai/ha, visually evaluated after 13 to 15 days
[4] = postemergence, 62 g ai/ha, scale 0 to 100
[5] = postemergence, 250 g ai/ha, scale 0 to 100 (0 no effect, 100 complete control)
[6] = postemergence, 125 g ai/ha, scale 0 to 100, 0 no effect, 100 complete control

CCc1cc(C(=O)NC2CC2)nn1Cc1ccnc(OC(F)F)c1 [Compound 98]
Plant response rating (scale of 0 to 100 where 0 is no effect and 100 is complete control), Waterhemp (waterhemp; [3]): 10 | Waterhemp plant response rating (waterhemp; [4]): 45 | Plant response rating, Waterhemp (waterhemp; [5]): 90 | Plant response rating, Waterhemp (waterhemp; [6]): 85 | Plant response rating (scale of 0 to 100 where 0 is no effect and 100 is complete control), Kochia (kochia; [3]): 40 | Kochia plant response rating (kochia; [4]): 75 | Plant response rating, Kochia (kochia; [5]): 85 | Plant response rating, Kochia (kochia; [6]): 85 | Plant response rating (scale of 0 to 100 where 0 is no effect and 100 is complete control), Lambsquarters (lambsquarters [1]; [3]): 60 | Lambsquarters plant response rating (lambsquarters [1]; [4]): 70 | Plant response rating, Lambsquarters (lambsquarters [1]; [5]): 95 | Plant response rating, Lambsquarters (lambsquarters [1]; [6]): 90 | Plant response rating (scale of 0 to 100 where 0 is no effect and 100 is complete control), Pigweed (pigweed; [3]): 10 | Pigweed plant response rating (pigweed; [4]): 10 | Plant response rating, Pigweed (pigweed; [5]): 90 | Plant response rating, Pigweed (pigweed; [6]): 30 | Plant response rating (scale of 0 to 100 where 0 is no effect and 100 is complete control), Blackgrass (blackgrass; [3]): 5 | Blackgrass plant response rating (blackgrass; [4]): 5 | Plant response rating, Blackgrass (blackgrass; [5]): 40 | Plant response rating, Blackgrass (blackgrass; [6]): 25 | Plant response rating (scale of 0 to 100 where 0 is no effect and 100 is complete control), Wheat (wheat; [3]): 5 | Wheat plant response rating (wheat; [4]): 5 | Plant response rating, Wheat (wheat; [5]): 20 | Plant response rating, Wheat (wheat; [6]): 5 | Plant response rating (scale of 0 to 100 where 0 is no effect and 100 is complete control), Foxtail, Giant (foxtail, giant; [3]): 45 | Foxtail, Giant plant response rating (foxtail, giant; [4]): 50 | Plant response rating, Foxtail, Giant (foxtail, giant; [5]): 85 | Plant response rating, Foxtail, Giant (foxtail, giant; [6]): 55 | Plant response rating (scale of 0 to 100), Lambsquarters (lambsquarters [2]; Preemergence, 250 g ai/ha): 100 | Lambsquarters plant response rating (lambsquarters [2]; preemergence, 31 g ai/ha, visual rating, scale 0 to 100 (0 no effect, 100 complete control), 13 to 15 days): 100 | Plant response rating, Lambsquarters (lambsquarters [2]; preemergence, 62 g ai/ha, 13 to 15 days, scale 0 to 100, 0 = no effect, 100 = complete control): 100 | Lambsquarters plant response rating (lambsquarters [2]; preemergence, 125 g ai/ha, scale 0 to 100, 0 is no effect, 100 is complete control): 100 | Plant response rating (scale of 0 to 100 where 0 is no effect and 100 is complete control), Soybean (soybean; [3]): 70 | Soybean plant response rating (soybean; [4]): 70 | Plant response rating, Soybean (soybean; [5]): 85 | Plant response rating, Soybean (soybean; [6]): 85 | Plant response rating (scale of 0 to 100 where 0 is no effect and 100 is complete control), Velvetleaf (velvetleaf; [3]): 15 | Velvetleaf plant response rating (velvetleaf; [4]): 20 | Plant response rating, Velvetleaf (velvetleaf; [5]): 50 | Plant response rating, Velvetleaf (velvetleaf; [6]): 20 | Plant response rating (scale of 0 to 100 where 0 is no effect and 100 is complete control), Nutsedge, Yellow (nutsedge, yellow; [3]): 0 | Nutsedge, Yellow plant response rating (nutsedge, yellow; [4]): 5 | Plant response rating, Nutsedge, Yellow (nutsedge, yellow; [5]): 5 | Plant response rating, Nutsedge, Yellow (nutsedge, yellow; [6]): 5 | Plant response rating (scale of 0 to 100 where 0 is no effect and 100 is complete control), Morningglory (morningglory; [3]): 45 | Morningglory plant response rating (morningglory; [4]): 50 | Plant response rating, Morningglory (morningglory; [5]): 90 | Plant response rating, Morningglory (morningglory; [6]): 70 | Plant response rating (scale of 0 to 100 where 0 is no effect and 100 is complete control), Oilseed Rape (oilseed rape; [3]): 20 | Oilseed Rape plant response rating (oilseed rape; [4]): 25 | Plant response rating, Oilseed Rape (oilseed rape; [5]): 30 | Plant response rating, Oilseed Rape (oilseed rape; [6]): 30 | Plant response rating (scale of 0 to 100 where 0 is no effect and 100 is complete control), Corn (corn; [3]): 5 | Corn plant response rating (corn; [4]): 5 | Plant response rating, Corn (corn; [5]): 10 | Plant response rating, Corn (corn; [6]): 5 | Plant response rating (scale of 0 to 100 where 0 is no effect and 100 is complete control), Johnsongrass (johnsongrass; [3]): 0 | Johnsongrass plant response rating (johnsongrass; [4]): 5 | Plant response rating, Johnsongrass (johnsongrass; [5]): 20 | Plant response rating, Johnsongrass (johnsongrass; [6]): 5 | Plant response rating (scale of 0 to 100 where 0 is no effect and 100 is complete control), Chickweed (chickweed; [3]): 100 | Chickweed plant response rating (chickweed; [4]): 100 | Plant response rating, Chickweed (chickweed; [5]): 100 | Plant response rating, Chickweed (chickweed; [6]): 100 | Plant response rating (scale of 0 to 100 where 0 is no effect and 100 is complete control), Ryegrass, Italian (ryegrass, Italian; [3]): 5 | Ryegrass, Italian plant response rating (ryegrass, Italian; [4]): 10 | Plant response rating, Ryegrass, Italian (ryegrass, Italian; [5]): 10 | Plant response rating, Ryegrass, Italian (ryegrass, Italian; [6]): 10 | Plant response rating (scale of 0 to 100 where 0 is no effect and 100 is complete control), Galium (galium; [3]): 50 | Galium plant response rating (galium; [4]): 55 | Plant response rating, Galium (galium; [5]): 90 | Plant response rating, Galium (galium; [6]): 65
